One data set relates to MDA-MB-231. The data set can be described thus: cells. The class given is cell-based. Particulars: Homo sapiens, 120 h; MDA-MB-231 cells, five days co-incubation; read-out: IC50 (nM) MDA-MB-231. On the procedure:
(§1) MDA-MB-231, OV90, and NCI-N87 cells at defined cell densities (1,500 cells per well, 80 µL volume) were seeded into 96-well plates. The cells were cultured overnight in a constant-temperature incubator (37°C, 5% CO2). Ecteinascidin derivative solutions at a maximum concentration of 2 mM were first prepared in DMSO, and serial 1:4 gradient dilutions were performed. 1 µL of each DMSO-prepared dilution was added to 99 µL of PBS containing 10% FBS per well and mixed thoroughly. The diluted solutions (2 µL of diluted solution and 18 µL of PBS containing 10% FBS per well) were then co-incubated with the cells (37°C, 5% CO2) for five days, after which CellTiter-Glo reagent (40 µL per well) was added, and […] values were measured using an i3x microplate reader.

For another data set, the system named is NCI-N87. The data set can be described thus: cells. Particulars: Homo sapiens, 120 h; NCI-N87 cells, five days co-incubation; read-out: IC50 (nM) NCI-N87. Format: cell-based. The protocol: as §1
In a further data set the test system is OV90. The data set can be described thus: cells. Format: cell-based. As to conditions: Homo sapiens, OV-90, 120 h; OV90 cells, five days co-incubation; read-out: IC50 (nM) OV90. The protocol:
as §1

The subject of data set [1] is specific soft tissue sarcomas. As to conditions: cited from earlier work.
The conditions of data set [2]: 378 patients who received at least one dose; cited from earlier work.

Each structure is given as a SMILES string.

Regarding `COc1cc2c(cc1O)CCN[C@]21CS[C@@H]2c3c(OC(C)=O)c(C)c4c(c3[C@H](COC1=O)N1[C@@H]2[C@H]2c3c(cc(C)c(OC)c3O)C[C@@H]([C@@H]1O)N2C)OCO4` [Trabectedin], the IC50 (usually the concentration that inhibits the measured activity by half) with MDA-MB-231 lay in the range of 1 to 10 nM. In addition, the IC50 in the data set with NCI-N87 was below 1 nM. In addition, in the data set with OV90, the IC50 is 10 to 200 nM. For the same compound, the HR in data set [1] (disease progression or death, 95% CI: 0.44-0.70, p<0.001) is given as 0.55. Also, in data set [1] (more than 500 patients), the “median OS” value is 13.7 months and the “risk of disease progression or death was reduced” value is reported as 45%. Besides, the “median PFS” value in data set [1] (more than 500 patients, n=345, 95% CI: 3.0-4.8 months) was 4.2 months. In data set [2], the “adverse reactions: constipation” value is 37%, the “adverse reactions: decreased appetite” value was 37%, the “adverse reactions: diarrhea” value is 35% and the “adverse reactions: dyspnea” value is listed as 25%. In data set [2], the “adverse reactions: fatigue” value is 69%, the “adverse reactions: headache” value is listed as 25%, the “adverse reactions: nausea” value was 75% and the “adverse reactions: peripheral edema” value was 28%. For the same compound, in data set [2], the “adverse reactions: vomiting” value is 46%, the “grade 3-4 laboratory abnormalities: alanine transaminase (ALT) increase” value is on record as 31%, the “grade 3-4 laboratory abnormalities: anemia” value was 19% and the “grade 3-4 laboratory abnormalities: aspartate transaminase (AST) increase” value is reported as 17%. Besides, in data set [2], the “grade 3-4 laboratory abnormalities: creatine kinase increase” value is 6.4%, the “grade 3-4 laboratory abnormalities: neutropenia” value is 43% and the “grade 3-4 laboratory abnormalities: thrombocytopenia” value is 21%.

The values above are taken from EP4778932A1 (priority 2023, dated 2025).
